{"source": "patent US20250195602A1", "about": "“Compositions and Methods for Treating Neuropathy” (Creative Bio-Peptides, Inc., priority 2021, published 2025)", "key": {"[1]": {"test": "Pharmacokinetics and brain entry of RAP-103 in rats (oral gavage and IV)", "format": "in vivo"}, "[2]": {"test": "Pharmacokinetics and brain entry of RAP-103 in guinea pigs (oral gavage and IV)", "format": "in vivo"}, "[3]": {"test": "Pharmacokinetics of RAP-103 in non-human primates (plasma levels, bioavailability)", "format": "in vivo, Rhesus macaques; Macaca mulatta", "conditions": "for bioavailability: rhesus monkey, in vivo", "method": "In non-human primates (rhesus monkeys) RAP-103 was dosed once on Day 1 by intravenous bolus injection at 1 mg/kg and plasma levels determined. […] Drug in plasma after a single IV dose (1 mg/Kg) was still measurable at anticipated therapeutic levels 96 hrs. post-dose in non-human primates as shown in FIG. 2B."}, "[4]": {"test": "Clinical observations and body weights over seven days after RAP-103 dosing (acute toxicity)", "format": "in vivo, Rhesus macaques; Macaca mulatta"}, "[5]": {"tested_on": "chemotherapy induced peripheral neuropathy (CIPN) caused by paclitaxel", "method": "Morphine was used as a positive control for pain response.\nThe ability of RAP-103 was tested to treat chemotherapy induced peripheral neuropathy (CIPN) caused by paclitaxel in rodents. This assay uses the chemotherapeutic agent paclitaxel to elicit a chronic pain state. Once established, pain in these animals can persist for weeks.\nRats were given i.p. injections of paclitaxel (2 mg/kg) on days 0, 2, 4, and 6 to induce a chronic pain state. […] On day 21 morphine (2 mg/Kg) was also administered to animals as a positive control. Pain was assessed 60 minutes after morphine or RAP-103 administration on the left rear paw on day 21 with a series of von Frey filaments with logarithmically incrementing stiffness applied perpendicular to the midplantar region of the hind paw. The paw withdrawal force (grams, g) threshold was determined."}, "[6]": {"conditions": "IV or oral gavage dosing, FIG. 2A"}}, "note": "Read-outs that look alike come from different tables or passages of the source.", "data": [{"smiles": "C[C@H](O)[C@@H](N)C(=O)N[C@@H](C(=O)N[C@H](CC(N)=O)C(=O)N[C@H](Cc1ccc(O)cc1)C(=O)N[C@@H](C(=O)O)[C@H](C)O)[C@H](C)O", "note": "[RAP-103, All D-peptide-Thr-Thr-Asn-Tyr-Thr]", "values": [{"measurement": "Brain level compared to plasma levels", "setting": "[1]", "value": "preferentially enters the brain"}, {"measurement": "Brain entry by oral compared to IV dosing", "setting": "[1]; FIG. 2A", "value": "preferentially entered the brain by oral"}, {"measurement": "Brain entry", "setting": "[1]; [6]", "value": "quickly entered the brain"}, {"measurement": "Persistence at therapeutic levels in brain", "setting": "[1]; [6]", "value": "at least 24 hrs"}, {"measurement": "Brain level compared to plasma levels", "setting": "[2]", "value": "preferentially enters the brain"}, {"measurement": "Brain entry by oral compared to IV dosing", "setting": "[2]; FIG. 2A", "value": "preferentially entered the brain by oral"}, {"measurement": "Brain entry", "setting": "[2]; [6]", "value": "quickly entered the brain"}, {"measurement": "Persistence at therapeutic levels in brain", "setting": "[2]; [6]", "value": "at least 24 hrs"}, {"measurement": "Brain entry", "setting": "[3]; non-human primates (Rhesus macaque), oral and IV dosing", "value": "quickly entered the brain"}, {"measurement": "Time post-dose at which drug in plasma was still measurable at anticipated therapeutic levels", "setting": "[3]; non-human primates, single IV dose 1 mg/Kg, FIG. 2B", "value": "≥ 96", "unit": "h"}, {"measurement": "bioavailability", "setting": "[3]; 1 mg/kg, female rhesus monkeys, 1 mg/kg dose level, read-out: Absolute bioavailability", "value": 88, "unit": "%"}, {"measurement": "bioavailability", "setting": "[3]; po, 1 mg/kg, male rhesus monkeys, 1 mg/kg dose level, read-out: Absolute bioavailability", "value": 89, "unit": "%"}, {"measurement": "bioavailability", "setting": "[3]; po, 1 mg/kg, non-human primates, read-out: Oral bioavailability", "value": 88, "unit": "%"}, {"measurement": "AUC 0-T, male versus female monkeys", "setting": "[3]; rhesus monkeys, 1 mg/kg", "value": "comparable"}, {"measurement": "Cmax, male versus female monkeys", "setting": "[3]; rhesus monkeys, 1 mg/kg", "value": "comparable"}, {"measurement": "Acute toxicity", "setting": "[4]", "value": "no acute toxicity"}, {"measurement": "RAP-103-related changes in body weights", "setting": "[4]", "value": "no RAP-103-related changes"}, {"measurement": "RAP-103-related changes in clinical observations", "setting": "[4]", "value": "no RAP-103-related changes"}, {"measurement": "Treatment of paclitaxel induced CIPN compared with standard of care (morphine)", "setting": "[5]; animal model of CIPN, RAP-103 0.05 mg/kg vs morphine 2 mg/Kg", "value": "at least equivalent"}, {"measurement": "Dose lower on a weight basis than morphine at at least equivalent effect", "setting": "[5]; animal model of paclitaxel induced CIPN", "value": "about 40 fold"}, {"measurement": "Paw withdraw threshold compared to vehicle", "setting": "[5]; rats treated with paclitaxel, FIG. 4", "value": "increased paw withdraw threshold"}, {"measurement": "Effect on chronic pain caused by repeated administration of paclitaxel", "setting": "[5]; rats, 0.05 mg/kg daily i.p. days 17-21 post paclitaxel, assessed 60 minutes after dosing on day 21, FIG. 4", "value": "reduced chronic pain"}]}]}
